Experimental data taken from PMC6534110, “Enzyme characterization and biological activities of a resuscitation promoting factor from an oil degrading bacterium Rhodococcus erythropolis KB1” (PeerJ, 2019).

Molecular target: T1, Rpf-1 (Rhodococcus erythropolis, UniProt C0ZMT9)
T1 construct: N-terminal Trx-His-S tag of pET-32a(+) kept (37 kDa on SDS-PAGE); forward primer encodes MSGRHR, reverse primer encodes C-terminal AKTFLK; conserved Cys50, Glu51, Cys114
Assay: fluorogenic hydrolysis, 4-methylumbelliferone release ([…] nm)
Assay type: biochemical
Conditions: 22 μM printed, McIlvaine phosphate-citrate buffer pH 5.2, 37 °C, 30 min

T1 sequence (C0ZMT9 entry or part of it): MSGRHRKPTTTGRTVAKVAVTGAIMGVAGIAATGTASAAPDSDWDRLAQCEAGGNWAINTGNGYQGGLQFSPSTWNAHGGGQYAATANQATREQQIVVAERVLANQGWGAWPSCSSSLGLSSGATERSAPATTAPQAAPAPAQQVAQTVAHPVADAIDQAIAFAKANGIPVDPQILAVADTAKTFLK

CC(=O)N[C@H]1[C@H](Oc2ccc3c(C)cc(=O)oc3c2)O[C@H](CO)[C@@H](O[C@@H]2O[C@H](CO)[C@@H](O[C@@H]3O[C@H](CO)[C@@H](O)[C@H](O)[C@H]3NC(C)=O)[C@H](O)[C@H]2NC(C)=O)[C@@H]1O [4-methylumbelliferyl-β-D-N,N′,N″-triacetylchitotrioside]
fluorogenic hydrolysis, 4-methylumbelliferone release (360/455 nm): The recombinant Rpf-1 showed muralytic activity when determined with the artificial lysozyme substrate
